Laboratory results reported in US12576129B2, “Anthelmintic compositions and methods” (priority 2016, dated 2026).
In brackets after ≈: the same amount, converted by molar mass. Read-outs that look alike come from different tables or passages of the source.

Legend:
BaCC [1] = assay: Minimum inhibitory concentration of terpenes against BaCC (broth microdilution); type: cell-based; conditions: Bacillus thuringiensis; 24 h at 30° C. in LB; no absorbance increase; read-out: MIC μg/mL (100)
Method: Three terpenes were tested against BaCC including: carvacrol, geraniol and farnesol, by using the broth microdilution method as described in Agaisse and Lereclus, J. Bacteriol. 176, 4734-4741, 1994 and Agaisse and Lereclus, Mol. Microbiol. 13, 97-107, 1994 with some modifications. Briefly, BaCC from a single colony was grown in 5 mL of LB medium supplemented with 10 μg/mL erythromycin+200 μg/mL kanamycin overnight (O.D. (600) of 4.8, 2.3×10^7 CFU/mL). Terpene solutions were prepared at 1 mg/mL in LB. One hundred μL of two-fold serial dilutions of each terpene in LB were prepared in 96-well microtiter plates over the range of 1000 to 3.9 μg/mL in triplicate. LB without terpenes was used as a negative control. BaCC culture was diluted 100 times, and 100 μL of BaCC culture was added to the wells. Absorbance at 600 nm was recorded before and after the incubation to monitor bacterial growth. The MICs were determined after incubation for 24 h at 30° C. without shaking.

BaCC [2] = assay: Time to kill: CFU/mL of BaCC after terpene treatment; type: cell-based, Bacillus thuringiensis
Method: In order to determine which terpene kills BaCC in the shortest amount of time, we incubated 5 mL of BaCC culture with three terpenes at 1 mg/mL at 4° C. for 1, 2, 3 and 5 hours. No terpene control and no bacteria controls were carried out simultaneously. After incubation with terpenes, samples were centrifuged and the pellets were washed with 5 mL of 1M NaCl once and 5 mL of sterile distilled water twice in order to remove the terpenes. The pellets were re-suspended in the original volume and plated on LB agar with kanamycin and erythromycin. Plates were incubated overnight at 30° C.; the next day, the number of colonies on the plates were enumerated and colony forming units (CFU)/mL calculated.
To assess terpene killing at shorter time points, BaCC culture was grown in 3× LB for 48 h as described above and 60 ml of cultures were aliquoted in sterile tubes. Carvacrol and geraniol were added to the final concentration of 1 mg/mL, and the tubes were placed on a rotator at 4° C. for 15 minutes. The negative control was prepared using sterile water instead of terpenes. At the end of the incubation period, the tubes were centrifuged at 2000× g for 10 minutes and pellets washed with 60 ml of 1 M NaCl once and washed with 60 mL of sterile distilled water twice. Pellets were re-suspended in 1.2 mL of sterile distilled water to concentrate the culture 50 times. Concentrated terpene treated and control samples were plated on LB agar plates containing kanamycin and erythromycin and incubated overnight at 30° C. The number of colonies were counted the next day and CFU/mL calculated for each time point.

E. coli = assay: CFU of E. coli after carvacrol treatment; type: cell-based, Escherichia coli; conditions: 1 mg/mL carvacrol for 15 minutes
Method: Bioactivity of carvacrol-treated Crystal-E. coli on C. elegans. Escherichia coli cells expressing nematicidal Crystal protein or empty vector were treated for 15 minutes with 1 mg/mL carvacrol. The cells were washed in sterile water 3 times. CFUs were determined for untreated and carvacrol-treated cells by serial dilution plating on LB plates. In addition, C. elegans nematode L4 hermaphrodites were fed overnight 1.8 ×10^7 cells/mL of E. coli untreated or carvacrol-treated, Crystal expressing and empty vector (4 conditions) at 25° C. for 16 hr.

[3] = cited from earlier work
BaCC [4] = assay: Carvacrol wash protocols: alive bacteria (CFU) after treatment; type: cell-based, Bacillus thuringiensis
Method: To reduce carvacrol residue in the final product, we tested different strategies. In order to reduce the carvacrol residue in the final IBaCC product, first the total amount of carvacrol was reduced by concentrating the cultures before carvacrol treatment. The cultures were centrifuged, and the pellets were re-suspended in sterile distilled water in half or one fourth of the original culture volume. Then, carvacrol was added at 1 mg/mL concentration. Second, carvacrol was removed from the culture by increasing the solubility of carvacrol in the water phase. […] As such, 5% and 15% of ethanol water was used in the washing steps following the IBaCC incubation with carvacrol. Another strategy employed was to increase the volume of distilled water during the washing steps to remove more carvacrol per wash step (for instance, only 25 mg carvacrol can be solubilized with 20 mL of water while 50 mg carvacrol can be solubilized with 40 mL of water.) Lastly, since the temperature affects carvacrol solubility, the incubation and washing steps were carried out at room temperature instead of 4° C. The positive control sample was treated with 1 mg/mL carvacrol without concentrating the culture prior to carvacrol treatment, incubated at 4° C., washed with 1M NaCl once and distilled water twice using 1:1 culture to wash volume ratio. No terpene control sample received water instead of carvacrol, but the incubation and washing steps were carried out in the same manner as the positive control. BaCC culture was grown in 3× LB for 48 hours, and 40 mL of BaCC culture was used for each condition. After washes, the culture was concentrated 20 times. Samples were plated for CFU/mL analysis as described earlier, and carvacrol residue was assessed by HPLC as follows.

[5] = Concentrated 2X = 20 ml before adding carvacrol (1 mg/mL)
[6] = Concentrated 4X = 10 ml before adding carvacrol (1 mg/mL)
[7] = Control: 4C, no concentration, 1:1 culture to wash volume (1 mg/mL carvacrol)
[8] = Incubated and washed at room temperature
[9] = Wash volume increased 2X (e.g., 40 ml wash for 20 ml culture)
[10] = Washes were done with 5% ethanol in water
[11] = Washes were done with 15% ethanol in water

In the case of `Cc1ccc(C(C)C)cc1O` [Carvacrol, carvacrol], the MIC (BaCC [1]) is reported as 125 µg/mL (≈ 832 µM), the “CFU/ml (1 mg/mL terpene treatment for time indicated)” value (“CFU/ml” for short) (BaCC [2]; 15 min at 4° C., culture concentrated 50 times (50X conc.) before plating) is reported as 0 CFU/ml and the “CFU/ml” value (BaCC [2]; 1 h at 4° C.) is reported as 0 CFU/ml. For the same compound, the “CFU/ml” value (BaCC [2]; 3 h at 4° C.) was 0 CFU/ml, the “CFU/ml” value (BaCC [2]; 5 h at 4° C.) was 0 CFU/ml and the “killing of BaCC (spo0A- cells expressing Cry5B)” value (BaCC [2]; carvacrol treatment) was “complete killing of the Bacilli”. The “comparison of antimicrobial efficiency among the 3 terpenes” value (BaCC [2]; carvacrol, geraniol, farnesol against BaCC) was “most efficient, killing the quickest and at the lowest concentration”, the “CFU/ml” value (BaCC [2]; time 0) was 2.31 × 10^7 CFU/ml and the “killing of E. coli (CFUs)” value (E. coli) was “effectively killed the E. coli”. The “log P octanol/water” value [3] was 3.64, the “amount that can be solubilized” value ([3]; with 20 mL of water) was 25 mg and the “amount that can be solubilized” value ([3]; with 40 mL of water) was 50 mg. The “Number of alive bacteria in 1 ml 20X concentrate” value (“Number … in 1 ml 20X concentrate” for short) (BaCC [4]; [5]) was 0, the “Number of alive bacteria in 1 ml culture” value (BaCC [4]; [5]) was 0 and the “Number … in 1 ml 20X concentrate” value (BaCC [4]; [6]) was 0. For the same compound, the “Number of alive bacteria in 1 ml culture” value (BaCC [4]; [6]) was 0, the “Number … in 1 ml 20X concentrate” value (BaCC [4]; [7]) was 0 and the “Number of alive bacteria in 1 ml culture” value (BaCC [4]; [7]) was 0. The “Number … in 1 ml 20X concentrate” value (BaCC [4]; [8]) was 0, the “Number of alive bacteria in 1 ml culture” value (BaCC [4]; [8]) was 0 and the “Number … in 1 ml 20X concentrate” value (BaCC [4]; [9]) was 140. For the same compound, the “Number of alive bacteria in 1 ml culture” value (BaCC [4]; [9]) was 7, the “Number … in 1 ml 20X concentrate” value (BaCC [4]; [10]) was 0 and the “Number of alive bacteria in 1 ml culture” value (BaCC [4]; [10]) was 0. The “Number … in 1 ml 20X concentrate” value (BaCC [4]; [11]) was 160 and the “Number of alive bacteria in 1 ml culture” value (BaCC [4]; [11]) was 8.
